# Results: patent US7119094B1, “Substituted polycyclic aryl and heteroarpyl pyrazinones useful for selective inhibition of the coagulation cascade” (Warner-Lambert Company, priority 2000, dated 2006)
# Where two headings read alike, the source gives them in different places.
# Experiments:
# [1] = molecular target: T1, recombinant soluble tissue factor and recombinant human factor VIIa (TF-VIIa) (Homo sapiens, UniProt P08709); assay: TF-VIIa Assay; format: biochemical
# T1 construct: conversion of coagulation factor VII to VIIa by Xa; purchased American Diagnostica, Greenwich Conn; host or cells: factor VIIa purchased; soluble TF made in house in E. coli
# T1 sequence (P08709 213-466 limits assumed): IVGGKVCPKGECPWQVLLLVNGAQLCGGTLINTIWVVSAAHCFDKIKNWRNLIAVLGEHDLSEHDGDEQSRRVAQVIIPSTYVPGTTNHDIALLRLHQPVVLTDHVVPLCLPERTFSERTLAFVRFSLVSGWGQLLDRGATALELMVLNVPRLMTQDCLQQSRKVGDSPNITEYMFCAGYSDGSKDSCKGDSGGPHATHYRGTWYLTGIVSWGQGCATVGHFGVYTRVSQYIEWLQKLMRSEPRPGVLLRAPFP
# T1 sequence (P08709 61-212 limits assumed): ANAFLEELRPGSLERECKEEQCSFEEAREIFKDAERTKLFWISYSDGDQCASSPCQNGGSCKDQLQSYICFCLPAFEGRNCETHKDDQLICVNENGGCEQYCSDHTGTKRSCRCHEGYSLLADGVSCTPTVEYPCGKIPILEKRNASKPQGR
# T1 sequence (P13726 33-251 partner limits assumed): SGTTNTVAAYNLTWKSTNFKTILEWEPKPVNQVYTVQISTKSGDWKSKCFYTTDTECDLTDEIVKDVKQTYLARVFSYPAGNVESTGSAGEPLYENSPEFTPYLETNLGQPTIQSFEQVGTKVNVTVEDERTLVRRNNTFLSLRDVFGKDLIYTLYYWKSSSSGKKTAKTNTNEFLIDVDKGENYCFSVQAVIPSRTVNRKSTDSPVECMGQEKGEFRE
# [2] = molecular target: T2, Trypsin (type 1× from porcine pancreas) (Sus scrofa, UniProt P00761); assay: Trypsin Assay; format: biochemical; parameters: % Inhibition Trypsin II @ 1: concentration or dose not given beside the values; conditions: for % Inhibition Trypsin II (30 µM): at 30 µM
# T2 construct: Trypsin (5 ug/ml; type 1× from porcine pancreas); purchased Sigma, St. Louis Mo; host or cells: porcine pancreas
# T2 sequence (P00761 9-231): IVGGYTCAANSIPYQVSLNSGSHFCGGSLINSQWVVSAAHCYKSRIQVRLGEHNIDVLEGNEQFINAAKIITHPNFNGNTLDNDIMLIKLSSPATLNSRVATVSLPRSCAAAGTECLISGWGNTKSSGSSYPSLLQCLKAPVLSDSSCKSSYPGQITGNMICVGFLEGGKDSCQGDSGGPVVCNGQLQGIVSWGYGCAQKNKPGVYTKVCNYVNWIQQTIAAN
% Inhibition TF-VIIa (100 νM) ([1]; inhibitor at 100 νM),% Inhibition Trpysin II (100 νM) ([2]; inhibitor at 100 νM),% Inhibition Trypsin II @ 1 [2],Compound,other results
0%,0%,–,O=C(Cn1c(Cc2ccccc2)c(Cl)nc(NCCc2ccccc2)c1=O)NCCc1ccncc1 [Example E-0058],–
1%,5%,–,O=C(Cn1c(-c2cccc(Cl)c2)c(Cl)nc(NCCc2cccc(Cl)c2)c1=O)NCCc1cccnc1 [Example E-0080],–
0%,0%,–,Cc1c(Cl)nc(NCCc2ccc(Cl)cc2)c(=O)n1CC(=O)NCCc1ccncc1 [Example E-0004],–
0%,11%,–,COc1ccc(-c2c(Cl)nc(NCc3ccccc3)c(=O)n2CC(=O)NCCc2ccncc2)cc1 [Example E-0097],–
–,–,8% @ 1,N=C(N)c1ccc(CNC(=O)Cn2c(-c3ccccc3)c(Cl)nc(NCc3ccc(Cl)cc3Cl)c2=O)cc1 [1507-22],–
–,–,–,CC(C)Nc1nc(Cl)c(-c2cccc([N+](=O)[O-])c2)n(CC(=O)NCc2ccc(C(N)=NO)cc2)c1=O [Example 61],% Inhibition Trypsin II (30 µM) [2]: 10%
0%,1%,–,O=C(Cn1c(-c2ccc(Cl)cc2)c(Cl)nc(NCCN2CCOCC2)c1=O)NCCc1ccncc1 [Example E-0023],–
0%,3%,–,O=C(Cn1c(-c2ccc3c(c2)OCO3)c(Cl)nc(NCCc2ccc(Cl)cc2)c1=O)NCCc1ccncc1 [Example E-0044],–
0%,5%,–,COc1ccc(-c2c(Cl)nc(NCc3ccccc3)c(=O)n2CC(=O)NCCc2ccncc2)cc1 [Example E-0033],–
0%,0%,–,O=C(Cn1c(Cc2ccccc2)c(Cl)nc(NCc2ccncc2)c1=O)NCCc1ccncc1 [Example E-0064],–
–,–,–,Nc1cccc(-c2c(Cl)nc(NC3CCC3)c(=O)n2CC(=O)NCCc2ccccc2)c1 [Example 89],% Inhibition Trypsin II (30 µM) [2]: 9% @ 30
0%,0%,–,O=C(Cn1c(Cc2ccccc2)c(Cl)nc(NCCN2CCOCC2)c1=O)NCCc1ccncc1 [Example E-0063],–
–,–,–,O=C(Cn1c(-c2ccc(-c3ccccc3)cc2)c(Cl)nc(NCCc2ccc(Cl)cc2)c1=O)NCCc1ccncc1 [Example E-0052],% Inhibition TF-VIIa (100 νM) [1]: 0%; % Inhibition Trpysin II (100 νM) [2]: 0%
0%,0%,–,O=C(Cn1c(CCc2ccccc2)c(Cl)nc(NCc2ccccc2)c1=O)NCCc1ccncc1 [Example E-0065],–
0%,4%,–,O=C(Cn1c(-c2ccccc2)c(Cl)nc(NCc2ccncc2)c1=O)NCCc1ccncc1 [Example E-0016],–
1%,8%,–,O=C(Cn1c(-c2cccc(Cl)c2)c(Cl)nc(NCCc2cccc(Cl)c2)c1=O)NCCc1ccncc1 [Example E-0091],–
0%,8%,–,COc1ccc(-c2c(Cl)nc(NCc3ccccc3)c(=O)n2CC(=O)NCCc2cccnc2)cc1 [Example E-0098],–
–,–,–,N=C(N)c1ccc(CNC(=O)Cn2c(-c3ccccc3)c(Cl)nc(NCC3CC3)c2=O)cc1 [Example 1517-43],% Inhibition Trypsin II (30 µM) ([2]; cells with % sign): 43%
–,12%,–,COc1ccc(-c2c(Cl)nc(NCCc3ccccc3)c(=O)n2CC(=O)NCCc2ccncc2)cc1 [Example E-0100],–
–,–,–,O=C(Cn1c(-c2ccc(-c3ccccc3)cc2)c(Cl)nc(NCCc2ccc(Cl)cc2)c1=O)NCCc1ccncc1 [Example E-0118],% Inhibition TF-VIIa (100 νM) [1]: 12%; % Inhibition Trpysin II (100 νM) [2]: 9%

% Inhibition TF-VIIa (100 νM) ([1]; inhibitor at 100 νM),% Inhibition Trpysin II (100 νM) ([2]; inhibitor at 100 νM),% Inhibition Trypsin II @ 1 [2],Compound,other results
0%,2%,–,O=C(Cn1c(-c2ccc3c(c2)OCO3)c(Cl)nc(NCCN2CCOCC2)c1=O)NCCc1ccncc1 [Example E-0047],–
0%,0%,–,O=C(Cn1c(-c2ccccc2)c(Cl)nc(NCCc2ccncc2)c1=O)NCCc1ccncc1 [Example E-0014],–
–,–,0% @ 1,N=C(N)c1ccc(CNC(=O)Cn2c(-c3ccccc3)c(Cl)nc(NCc3ccc(Br)cc3)c2=O)cc1 [1507-30],–
0%,4%,–,COc1ccc(-c2c(Cl)nc(NCc3ccncc3)c(=O)n2CC(=O)NCCc2ccncc2)cc1 [Example E-0040],–
–,–,–,Cc1c(Cl)nc(NCCc2ccc(Cl)cc2)c(=O)n1CC(=O)NCc1ccc(C(=N)N)cc1 [1471-2],% Inhibition Trypsin II (30 µM) [2]: 0%
0%,9%,–,O=C(Cn1c(-c2cccc(Cl)c2)c(Cl)nc(NCCc2ccccc2)c1=O)NCCc1ccncc1 [Example E-0088],–
–,–,27% @ 1,COc1ccc(CCNc2nc(Cl)c(-c3ccccc3)n(CC(=O)NCc3ccc(C(=N)N)cc3)c2=O)cc1 [1507-11],–
0%,0%,–,O=C(Cn1c(CCc2ccccc2)c(Cl)nc(NCCc2ccc(Cl)cc2)c1=O)NCCc1ccncc1 [Example E-0068],–
4%,2%,–,COc1ccc(-c2c(Cl)nc(NCCc3cccc(Cl)c3)c(=O)n2CC(=O)NCCc2ccncc2)cc1 [Example E-0035],–
2%,1%,–,Cc1c(Cl)nc(NCCc2ccncc2)c(=O)n1CC(=O)NCCc1ccncc1 [Example E-0006],–
0%,0%,–,O=C(Cn1c(Cc2ccccc2)c(Cl)nc(NCCc2ccncc2)c1=O)NCCc1ccncc1 [Example E-0062],–
–,–,11% @ 1,N=C(N)c1ccc(CNC(=O)Cn2c(-c3ccccc3)c(Cl)nc(NCc3ccccc3C(F)(F)F)c2=O)cc1 [1507-15],–
0%,0%,–,O=C(Cn1c(Cc2ccccc2)c(Cl)nc(NCc2ccccc2)c1=O)NCCc1ccncc1 [Example E-0057],–
0%,0%,–,O=C(Cn1c(CCc2ccccc2)c(Cl)nc(NCc2ccncc2)c1=O)NCCc1ccncc1 [Example E-0072],–
4%,12%,–,COc1ccc(-c2c(Cl)nc(NCCc3ccc(Cl)cc3)c(=O)n2CC(=O)NCCc2cccnc2)cc1 [Example E-0107],–
0%,1%,–,O=C(Cn1c(-c2ccc(Cl)cc2)c(Cl)nc(NCc2ccccc2)c1=O)NCCc1ccncc1 [Example E-0017],–
–,–,8% @ 1,N=C(N)c1ccc(CNC(=O)Cn2c(-c3ccccc3)c(Cl)nc(NCCc3ccc(Br)cc3)c2=O)cc1 [1507-06],–
1%,9%,–,O=C(Cn1c(-c2cccc(Cl)c2)c(Cl)nc(NCCc2cccc(Cl)c2)c1=O)NCCc1cccnc1 [Example E-0092],–
–,–,12% @ 1,COc1cccc(CCNc2nc(Cl)c(-c3ccccc3)n(CC(=O)NCc3ccc(C(=N)N)cc3)c2=O)c1 [1507-12],–
–,–,2% @ 1,N=C(N)c1ccc(CNC(=O)Cn2c(-c3ccccc3)c(Cl)nc(NC3CC3)c2=O)cc1 [1507-31],–

% Inhibition TF-VIIa (100 νM) ([1]; inhibitor at 100 νM),% Inhibition Trpysin II (100 νM) ([2]; inhibitor at 100 νM),% Inhibition Trypsin II @ 1 [2],Compound,other results
–,–,–,N=C(N)NCC#CCNC(=O)Cn1c(-c2ccccc2)cnc(NCCc2ccccc2)c1=O [Example 36],% Inhibition Trypsin II (30 µM) [2]: 30%
–,–,78% @ 1,N=C(N)c1ccc(CNC(=O)Cn2c(-c3cccc(N)c3)c(Cl)nc(NCCc3ccccc3)c2=O)cc1 [Example 86],–
–,–,11% @ 1,N=C(N)c1ccc(CNC(=O)Cn2c(-c3ccccc3)c(Cl)nc(NCc3ccc(F)cc3F)c2=O)cc1 [1507-26],–
–,–,60% @ 1,N=C(N)c1ccc(CNC(=O)Cn2c(-c3ccccc3)c(Cl)nc(NC3CCCC3)c2=O)cc1 [1507-25],–
–,–,–,N=C(N)c1ccc(CNC(=O)Cn2c(-c3ccc4c(c3)OCO4)c(Cl)nc(NCCc3ccc(Cl)cc3)c2=O)cc1 [1471-42],IC50 ([1]; read-out: IC50 TF-VIIa): 10.5 µM
–,–,0% @ 1,C[C@H](Nc1nc(Cl)c(-c2ccccc2)n(CC(=O)NCc2ccc(C(=N)N)cc2)c1=O)c1ccccc1 [1507-34],–
–,–,8% @ 1,COc1ccc(CNc2nc(Cl)c(-c3ccccc3)n(CC(=O)NCc3ccc(C(=N)N)cc3)c2=O)cc1 [1507-13],–
–,–,0% @ 1,N=C(N)c1ccc(CNC(=O)Cn2c(-c3ccccc3)c(Cl)nc(NCc3cccc(F)c3)c2=O)cc1 [1507-42],–
–,–,–,Nc1cccc(-c2c(Cl)nc(NC3CCC3)c(=O)n2CC(=O)NCc2ccccc2)c1 [Example 99],% Inhibition Trypsin II (30 µM) [2]: 7% @ 30
–,–,9% @ 1,N=C(N)c1ccc(CNC(=O)Cn2c(-c3ccccc3)c(Cl)nc(NCc3ccc(OC(F)(F)F)cc3)c2=O)cc1 [1507-04],–
0%,–,–,O=C(Cn1c(-c2ccccc2)c(Cl)nc(NCCN2CCOCC2)c1=O)NCCc1ccncc1 [Example E-0015],–
–,–,0% @ 1,CC(C)CNc1nc(Cl)c(-c2ccccc2)n(CC(=O)NCc2ccc(C(=N)N)cc2)c1=O [1507-32],–
–,–,–,N=C(N)c1ccc(CNC(=O)Cn2c(-c3ccccc3)c(Cl)nc(NCc3ccccn3)c2=O)cc1 [1507-24],% Inhibition Trypsin II (30 µM) [2]: 25% @ 30
–,–,0% @ 1,N=C(N)c1ccc(CNC(=O)Cn2c(-c3ccccc3)c(Cl)nc(NCc3cccc(Cl)c3)c2=O)cc1 [1507-38],–
–,–,7% @ 1,N=C(N)c1ccc(CNC(=O)Cn2c(-c3ccccc3)c(Cl)nc(NC(Cc3ccccc3)c3ccccc3)c2=O)cc1 (centres unmarked) [1507-07],–
–,–,1% @ 1,N=C(N)c1ccc(CNC(=O)Cn2c(-c3ccccc3)c(Cl)nc(NCc3cccc4ccccc34)c2=O)cc1 [1507-28],–
–,–,6% @ 1,N=C(N)c1ccc(CNC(=O)Cn2c(-c3ccccc3)c(Cl)nc(NCCc3cccs3)c2=O)cc1 [1507-18],–
–,–,0% @ 1,Cc1ccc(CCNc2nc(Cl)c(-c3ccccc3)n(CC(=O)NCc3ccc(C(=N)N)cc3)c2=O)cc1 [1507-45],–
